ChEMBL document CHEMBL1156400, “Cedronolactone E, a novel C(19) quassinoid from Simaba cedron” (J Nat Prod, 2001)
Converted amounts (≈) assume the structure as drawn.

Test system: P388
Assay: Cytotoxicity against mouse P388 cells
Assay type: functional, cell-based

Molecule `C[C@@H]1[C@@H]2[C@@H](O)C(=O)O[C@@H]3C[C@@]4(C)C(=C(O[C@@]5(C)CC(=O)O[C@@H]45)[C@@H]1O)[C@]23CO` [CEDRONOLACTONE E] has an IC50 of 51 µg/mL (≈ 134 µM).
